Data on 15 molecules can be found in PubChem BioAssay AID328 (DTP/NCI, 2004).

“And” between values parts separate entries of the source, which are not always exact repeats. Equal values may be shown once. Toxic doses and inconclusive results are not listed.

The test deals with BDF1 mice, P388 leukemia ip, median survival T/C. Briefly: NCI In Vivo Anticancer Drug Screen. Data for tumor model P388 Leukemia (intraperitoneal) in B6D2F1 (BDF1) mice. The settings on record: endpoint: median survival time, higher = longer survival. The method in brief:
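Reported as T/C, where T is the survival measurement in dosed animals and C the same measurement in vehicle controls.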

[1] abbreviates: dose: 100.0 mg/kg/injection, schedule: Q04DX003 (ip), vehicle: other.
The mark [2] stands for this setting: dose: 200.0 mg/kg/injection, schedule: Q04DX003 (ip), vehicle: other.
[3] abbreviates: dose: 100.0 mg/kg/injection, schedule: Q04DX003 (ip), vehicle: Klucel (hydroxypropylcellulose) (HPC).
The mark [4] stands for this setting: dose: 200.0 mg/kg/injection, schedule: Q04DX003 (ip), vehicle: Klucel (hydroxypropylcellulose) (HPC).
Setting [5] is: dose: 400.0 mg/kg/injection, schedule: Q04DX003 (ip), vehicle: Klucel (hydroxypropylcellulose) (HPC).
[6] abbreviates: dose: 50.0 mg/kg/injection, schedule: Q01DX009 (ip), vehicle: saline.
Setting [7] is: dose: 100.0 mg/kg/injection, schedule: Q01DX009 (ip), vehicle: saline.
Setting [8] is: dose: 100.0 mg/kg/injection, schedule: Q04DX003 (ip), vehicle: saline.
The mark [9] stands for this setting: dose: 200.0 mg/kg/injection, schedule: Q01DX009 (ip), vehicle: saline.
Setting [10] is: dose: 200.0 mg/kg/injection, schedule: Q04DX003 (ip), vehicle: saline.
[11] abbreviates: dose: 400.0 mg/kg/injection, schedule: Q01DX009 (ip), vehicle: saline.
Where [12] appears, read: dose: 400.0 mg/kg/injection, schedule: Q04DX003 (ip), vehicle: saline.
Where [13] appears, read: dose: 100.0 mg/kg/injection, schedule: Q01DX009 (ip), vehicle: other.
[14] abbreviates: dose: 400.0 mg/kg/injection, schedule: Q01DX009 (ip), vehicle: other.
Where [15] appears, read: dose: 25.0 mg/kg/injection, schedule: Q01DX009 (ip), vehicle: saline.

Regarding `COc1cc(NS(C)(=O)=O)ccc1Nc1c2ccc([N+](=O)[O-])cc2nc2c(C)cccc12`, the T/C (dose: 0.1 mg/kg/injection, schedule: Q04DX003 (ip), vehicle: saline with Tween-80) was 112 % of control; the T/C (dose: 0.2 mg/kg/injection, schedule: Q04DX003 (ip), vehicle: saline with Tween-80) was 120 % of control; the T/C (dose: 0.86 mg/kg/injection, schedule: Q04DX003 (ip), vehicle: saline with Tween-80) was 200 % of control; the T/C (dose: 1.3 mg/kg/injection, schedule: Q04DX003 (ip), vehicle: saline with Tween-80) is 165 % of control; the T/C (dose: 2.0 mg/kg/injection, schedule: Q04DX003 (ip), vehicle: saline with Tween-80) is 184 % of control; the T/C (dose: 3.0 mg/kg/injection, schedule: Q04DX003 (ip), vehicle: saline with Tween-80) was 230 % of control and 204 % of control. The T/C is 241 % of control (dose: 5.0 mg/kg/injection, schedule: Q04DX003 (ip), vehicle: saline with Tween-80); 230 % of control and 241 % of control (dose: 8.0 mg/kg/injection, schedule: Q04DX003 (ip), vehicle: saline with Tween-80); 230 % of control (dose: 12.0 mg/kg/injection, schedule: Q04DX003 (ip), vehicle: saline with Tween-80); 123 % of control (dose: 18.0 mg/kg/injection, schedule: Q04DX003 (ip), vehicle: saline with Tween-80).
On to `C=C1C(=O)OC2/C=C(/C)C(OC(C)=O)CC(O)/C(C)=C\C(OC(=O)/C(C)=C\C)C12` (stereo not given), for which the T/C is, setting by setting: (dose: 2.5 mg/kg/injection, schedule: Q01DX009 (ip), vehicle: saline + alcohol) 100 % of control; (dose: 5.0 mg/kg/injection, schedule: Q01DX009 (ip), vehicle: saline + alcohol) 118 % of control; (dose: 10.0 mg/kg/injection, schedule: Q01DX009 (ip), vehicle: saline + alcohol) 109 % of control; (dose: 20.0 mg/kg/injection, schedule: Q01DX009 (ip), vehicle: saline + alcohol) 109 % of control; (dose: 27.0 mg/kg/injection, schedule: Q01DX010 (ip), vehicle: saline) 115 % of control; (dose: 40.0 mg/kg/injection, schedule: Q01DX009 (ip), vehicle: saline + alcohol) 122 % of control. Moreover, the T/C is, setting by setting: (dose: 40.0 mg/kg/injection, schedule: Q01DX010 (ip), vehicle: saline) 110 % of control; (dose: 80.0 mg/kg/injection, schedule: Q01DX009 (ip), vehicle: saline + alcohol) 86 % of control.
For the molecule `O=c1cc(-c2ccccc2)ss1`, the T/C runs as follows: (dose: 6.25 mg/kg/injection, schedule: Q01DX009 (ip), vehicle: saline with Tween-80) 98 % of control; (dose: 12.5 mg/kg/injection, schedule: Q01DX009 (ip), vehicle: saline with Tween-80) 102 % of control and 122 % of control; (dose: 50.0 mg/kg/injection, schedule: Q01DX009 (ip), vehicle: saline with Tween-80) 110 % of control and 121 % of control; (dose: 50.0 mg/kg/injection, schedule: Q04DX003 (ip), vehicle: saline with Tween-80) 89 % of control; (dose: 100.0 mg/kg/injection, schedule: Q01DX009 (ip), vehicle: saline with Tween-80) 121 % of control and 122 % of control; under setting [1], 105 % of control. The T/C (dose: 100.0 mg/kg/injection, schedule: Q04DX003 (ip), vehicle: saline with Tween-80) was 99 % of control and 100 % of control; the T/C (dose: 178.0 mg/kg/injection, schedule: Q04DX003 (ip), vehicle: other) was 111 % of control; the T/C (dose: 200.0 mg/kg/injection, schedule: Q01DX009 (ip), vehicle: saline with Tween-80) is 110 % of control; the T/C under setting [2] was 100 % of control; the T/C (dose: 200.0 mg/kg/injection, schedule: Q04DX003 (ip), vehicle: saline with Tween-80) was 111 % of control; the T/C (dose: 266.0 mg/kg/injection, schedule: Q04DX003 (ip), vehicle: other) is 111 % of control. For the same molecule, the T/C (dose: 400.0 mg/kg/injection, schedule: Q04DX003 (ip), vehicle: saline with Tween-80) is 100 % of control.
As to `COc1ccccc1NC(=O)Oc1ccc(-c2ccccc2)cc1Br`, the T/C was 95 % of control under setting [3], 87 % of control under setting [4] and 91 % of control under setting [5].
Consider `O=C(O)CC1(c2cccc3ccccc23)OC(=O)c2ccccc21` (stereo not given), for which the T/C (dose: 100.0 mg/kg/injection, schedule: Q01DX001 (ip), vehicle: saline with Tween-80) is 112 % of control; the T/C (dose: 200.0 mg/kg/injection, schedule: Q01DX001 (ip), vehicle: saline with Tween-80) was 88 % of control; the T/C (dose: 400.0 mg/kg/injection, schedule: Q01DX001 (ip), vehicle: saline with Tween-80) is 97 % of control.
In the case of `S=c1cc(-c2cccs2)ss1`, the T/C runs as follows: under setting [6], 109 % of control; (dose: 50.0 mg/kg/injection, schedule: Q04DX003 (ip), vehicle: saline) 108 % of control; under setting [7], 96 % of control; under setting [8], 115 % of control; under setting [9], 100 % of control; under setting [10], 105 % of control. For the same molecule, the T/C by setting is: under setting [11], 91 % of control; under setting [12], 107 % of control.
As for `CC1C=CC(C(N)C(=O)O)O1` (stereo not given), the T/C under setting [8] was 100 % of control; the T/C under setting [10] is 100 % of control; the T/C under setting [12] is 95 % of control and 100 % of control.
Take `CC(C)CCC[C@@H](C)[C@H]1CC[C@H]2[C@@H]3CC=C4C[C@@H](O)CC[C@]4(C)[C@H]3CC[C@]12C`: the T/C is, setting by setting: under setting [13], 106 % of control; (dose: 200.0 mg/kg/injection, schedule: Q01DX009 (ip), vehicle: other) 103 % of control; under setting [14], 89 % of control; (dose: 800.0 mg/kg/injection, schedule: Q01DX009 (ip), vehicle: other) 105 % of control.
As to `CCOC(=O)C(=O)NCc1cnccn1`, the T/C is, setting by setting: (dose: 100.0 mg/kg/injection, schedule: Q04DX003 (ip), vehicle: water) 104 % of control; (dose: 200.0 mg/kg/injection, schedule: Q04DX003 (ip), vehicle: water) 104 % of control; (dose: 400.0 mg/kg/injection, schedule: Q04DX003 (ip), vehicle: water) 100 % of control.
In the case of `Clc1ncnc2c1ncn2C1CCCCO1` (stereo not given), the T/C under setting [15] is 90 % of control; the T/C under setting [6] is 100 % of control; the T/C under setting [13] is 92 % of control; the T/C under setting [7] was 95 % of control; the T/C under setting [1] is 108 % of control; the T/C under setting [2] is 108 % of control. The T/C under setting [14] is 115 % of control and the T/C (dose: 400.0 mg/kg/injection, schedule: Q04DX003 (ip), vehicle: other) was 108 % of control.
As for `COC(=O)/C=C/CCBr`, the T/C was 104 % of control (dose: 100.0 mg/kg/injection, schedule: Q04DX002 (ip), vehicle: saline with Tween-80); 109 % of control (dose: 200.0 mg/kg/injection, schedule: Q04DX002 (ip), vehicle: saline with Tween-80); 114 % of control (dose: 400.0 mg/kg/injection, schedule: Q04DX002 (ip), vehicle: saline with Tween-80).
On to `NC(N)=NCCCC(NC(=O)OCc1ccccc1)C(=O)O` (stereo not given), for which the T/C is 100 % of control under setting [3], 104 % of control under setting [4] and 100 % of control under setting [5].
Turning to `CN(C)c1cc(Br)c(C=O)cc1[N+](=O)[O-]`, the T/C is 95 % of control under setting [3], 95 % of control under setting [4] and 100 % of control under setting [5].
Consider `CC1OC(OC2CC(O)(C(=O)CO)Cc3c(O)c4c(c(O)c32)C(=O)c2ccccc2C4=O)CC(N)C1O` (stereo not given), for which the T/C (dose: 216.0 micrograms/kg/injection, schedule: Q04DX003 (ip), vehicle: water) was 155 % of control; the T/C (dose: 360.0 micrograms/kg/injection, schedule: Q04DX003 (ip), vehicle: water) is 163 % of control; the T/C (dose: 600.0 micrograms/kg/injection, schedule: Q04DX003 (ip), vehicle: water) was 166 % of control.
As for `CC(=N\O)/C(C)=N/O.CC(=N\O)/C(C)=N/O.[Br][Rh][Br]`, the T/C is 99 % of control under setting [15]; 100 % of control under setting [6]; 119 % of control and 92 % of control under setting [7]; 110 % of control and 99 % of control and 100 % of control under setting [9]; 100 % of control under setting [11].
